Source: patent US9707229B2, “Compositions and methods for treating an infection” (CMPD LICENSING, LLC, priority 2015, dated 2017)

Key:
Format in all cases: cell-based
[1] = tested on: Diphtheroids; test: Expected efficacy of antibiotic agents; settings: Gram: pos
[2] = tested on: Shigella dysenteriae; test: Expected efficacy of antibiotic agents; settings: Gram: neg
[3] = tested on: Vibrio cholerae; test: Expected efficacy of antibiotic agents; settings: Gram: neg
[4] = tested on: Corynebacterium jeikeium; test: Expected efficacy of antibiotic agents; settings: Gram: pos
[5] = tested on: Francisella tularensis; settings: expected efficacy; Gram: neg
[6] = tested on: Methicillin resistant staph aureus (MRSA); test: Expected efficacy of antibiotic agents; settings: Gram: pos
[7] = tested on: Providencia stuartii; test: Expected efficacy of antibiotic agents; settings: Gram: neg
[8] = tested on: Staphylococcus epidermidis; test: Expected efficacy of antibiotic agents; settings: Gram: pos
[9] = tested on: Providencia rettgeri; test: Expected efficacy of antibiotic agents; settings: Gram: neg
[10] = tested on: Enterobacter sakazakii; test: Expected efficacy of antibiotic agents; settings: Gram: neg
[11] = tested on: Peptostreptococcus; test: Expected efficacy of antibiotic agents; settings: Gram: pos
[12] = tested on: Streptococcus pneumoniae; test: Expected efficacy of antibiotic agents; settings: Gram: pos
[13] = tested on: Klebsiella (Calymmatobacterium) granulomatis; test: Expected efficacy of antibiotic agents; settings: Gram: neg
[14] = tested on: Shigella boydii; test: Expected efficacy of antibiotic agents; settings: Gram: neg
[15] = tested on: Streptococcus pyogenes; test: Expected efficacy of antibiotic agents; settings: Gram: pos
[16] = tested on: Proteus mirabilis; test: Expected efficacy of antibiotic agents; settings: Gram: neg
[17] = tested on: Acinetobacter baumannii; test: Expected efficacy of antibiotic agents; settings: Gram: neg
[18] = tested on: Shigella sonnei; test: Expected efficacy of antibiotic agents; settings: Gram: neg
[19] = tested on: Bacteroides fragilis; test: Expected efficacy of antibiotic agents; settings: Gram: anaer
[20] = tested on: Citrobacter diversus; test: Expected efficacy of antibiotic agents; settings: Gram: neg
[21] = tested on: Rickettsiae; settings: expected efficacy; Gram: neg
[22] = tested on: Corynebacterium urealyticum; test: Expected efficacy of antibiotic agents; settings: Gram: pos
[23] = tested on: Chlamydia pneumoniae; test: Expected efficacy of antibiotic agents; settings: Gram: n/a
[24] = tested on: Moraxella catarrhalis; test: Expected efficacy of antibiotic agents; settings: Gram: neg
[25] = tested on: Clostridium perfringens; settings: expected efficacy; Gram: anaer
[26] = tested on: Legionella pneumophila; settings: expected efficacy; Gram: neg
[27] = tested on: Yersinia pestis; settings: expected efficacy; Gram: neg
[28] = tested on: Shigella flexneri; test: Expected efficacy of antibiotic agents; settings: Gram: neg
[29] = tested on: Bordetella pertussis; test: Expected efficacy of antibiotic agents; settings: Gram: neg
[30] = tested on: Enterococcus faecium; test: Expected efficacy of antibiotic agents; settings: Gram: pos
[31] = tested on: Klebsiella oxytoca; test: Expected efficacy of antibiotic agents; settings: Gram: neg
[32] = tested on: Enterobacter cloacae; test: Expected efficacy of antibiotic agents; settings: Gram: neg
[33] = tested on: Neisseria gonorrhoeae; test: Expected efficacy of antibiotic agents; settings: Gram: neg
[34] = tested on: Enterococcus faecalis; test: Expected efficacy of antibiotic agents; settings: Gram: pos
[35] = tested on: Chlamydia psittaci; settings: expected efficacy; Gram: n/a
[36] = tested on: Streptococcus agalactiae; test: Expected efficacy of antibiotic agents; settings: Gram: pos
[37] = tested on: Morganella morganii; test: Expected efficacy of antibiotic agents; settings: Gram: neg
[38] = tested on: Haemophilus parainfluenzae; test: Expected efficacy of antibiotic agents; settings: Gram: neg
[39] = tested on: Campylobacter jejuni; test: Expected efficacy of antibiotic agents; settings: Gram: neg
[40] = tested on: Chlamydia trachomatis; test: Expected efficacy of antibiotic agents; settings: Gram: n/a
[41] = tested on: Neisseria meningitidis; test: Expected efficacy of antibiotic agents; settings: Gram: neg
[42] = tested on: Clostridium difficile; test: Expected efficacy of antibiotic agents; settings: Gram: anaer
[43] = tested on: Acinetobacter calcoaceticus; test: Expected efficacy of antibiotic agents; settings: Gram: neg
[44] = tested on: Serratia marcescens; test: Expected efficacy of antibiotic agents; settings: Gram: neg
[45] = tested on: Pseudomonas aeruginosa; test: Expected efficacy of antibiotic agents; settings: Gram: neg
[46] = tested on: Viridans group streptococci; test: Expected efficacy of antibiotic agents; settings: Gram: pos
[47] = tested on: Klebsiella pneumoniae; test: Expected efficacy of antibiotic agents; settings: Gram: neg
[48] = tested on: Enterobacter aerogenes; test: Expected efficacy of antibiotic agents; settings: Gram: neg
[49] = tested on: Haemophilus influenzae; test: Expected efficacy of antibiotic agents; settings: Gram: neg
[50] = tested on: Salmonella typhi; test: Expected efficacy of antibiotic agents; settings: Gram: neg
[51] = tested on: Staphylococcus aureus (MSSA); test: Expected efficacy of antibiotic agents; settings: Gram: pos
[52] = tested on: Escherichia coli; test: Expected efficacy of antibiotic agents; settings: Gram: neg
[53] = tested on: Haemophilus ducreyi; test: Expected efficacy of antibiotic agents; settings: Gram: neg
[54] = tested on: Proteus vulgaris; test: Expected efficacy of antibiotic agents; settings: Gram: neg
[55] = tested on: Mycoplasma pneumoniae; test: Expected efficacy of antibiotic agents; settings: Gram: n/a
[56] = tested on: Citrobacter freundii; test: Expected efficacy of antibiotic agents; settings: Gram: neg
[57] = tested on: Acinetobacter lwoffii; test: Expected efficacy of antibiotic agents; settings: Gram: neg

With `CO/N=C(\C(=O)N[C@@H]1C(=O)N2C(C(=O)O)=C(CSc3nc(=O)c(=O)[nH]n3C)CS[C@H]12)c1csc(N)n1` [Ceftriaxone] the “efficacy against Diphtheroids” value [1] was “no”, the “efficacy against Shigella dysenteriae” value [2] was “yes” and the “efficacy against Vibrio cholerae” value [3] was “no”. The “efficacy against Corynebacterium jeikeium” value [4] was “no”, the “efficacy against Francisella tularensis” value [5] was “no” and the “efficacy against Methicillin resistant staph aureus (MRSA)” value [6] was “no”. The “efficacy against Providencia stuartii” value [7] was “yes”, the “efficacy against Staphylococcus epidermidis” value [8] was “yes” and the “efficacy against Providencia rettgeri” value [9] was “yes”. For the same compound, the “efficacy against Enterobacter sakazakii” value [10] was “yes”, the “efficacy against Peptostreptococcus” value [11] was “yes” and the “efficacy against Streptococcus pneumoniae” value [12] was “yes”. For the same compound, the “efficacy against Klebsiella (Calymmatobacterium) granulomatis” value [13] was “yes”, the “efficacy against Shigella boydii” value [14] was “yes” and the “efficacy against Streptococcus pyogenes” value [15] was “yes”. The “efficacy against Proteus mirabilis” value [16] was “yes”, the “efficacy against Acinetobacter baumannii” value [17] was “no” and the “efficacy against Shigella sonnei” value [18] was “yes”. The “efficacy against Bacteroides fragilis” value [19] was “yes”, the “efficacy against Citrobacter diversus” value [20] was “yes” and the “efficacy against Rickettsiae” value [21] was “no”. The “efficacy against Corynebacterium urealyticum” value [22] was “no”, the “efficacy against Chlamydia pneumoniae” value [23] was “no” and the “efficacy against Moraxella catarrhalis” value [24] was “yes”. The “efficacy against Clostridium perfringens” value [25] was “yes”, the “efficacy against Legionella pneumophila” value [26] was “no” and the “efficacy against Yersinia pestis” value [27] was “no”. The “efficacy against Shigella flexneri” value [28] was “yes”, the “efficacy against Bordetella pertussis” value [29] was “no” and the “efficacy against Enterococcus faecium” value [30] was “no”. The “efficacy against Klebsiella oxytoca” value [31] was “yes”, the “efficacy against Enterobacter cloacae” value [32] was “yes” and the “efficacy against Neisseria gonorrhoeae” value [33] was “yes”. For the same compound, the “efficacy against Enterococcus faecalis” value [34] was “no”, the “efficacy against Chlamydia psittaci” value [35] was “no” and the “efficacy against Streptococcus agalactiae” value [36] was “yes”. For the same compound, the “efficacy against Morganella morganii” value [37] was “yes”, the “efficacy against Haemophilus parainfluenzae” value [38] was “yes” and the “efficacy against Campylobacter jejuni” value [39] was “no”. The “efficacy against Chlamydia trachomatis” value [40] was “no”, the “efficacy against Neisseria meningitidis” value [41] was “yes” and the “efficacy against Clostridium difficile” value [42] was “no”. The “efficacy against Acinetobacter calcoaceticus” value [43] was “no”, the “efficacy against Serratia marcescens” value [44] was “yes” and the “efficacy against Pseudomonas aeruginosa” value [45] was “no”. For the same compound, the “efficacy against Viridans group streptococci” value [46] was “yes”, the “efficacy against Klebsiella pneumoniae” value [47] was “yes” and the “efficacy against Enterobacter aerogenes” value [48] was “yes”. For the same compound, the “efficacy against Haemophilus influenzae” value [49] was “yes”, the “efficacy against Salmonella typhi” value [50] was “yes” and the “efficacy against Staphylococcus aureus (MSSA)” value [51] was “yes”. The “efficacy against Escherichia coli” value [52] was “yes”, the “efficacy against Haemophilus ducreyi” value [53] was “yes” and the “efficacy against Proteus vulgaris” value [54] was “yes”. The “efficacy against Mycoplasma pneumoniae” value [55] was “no”, the “efficacy against Citrobacter freundii” value [56] was “yes” and the “efficacy against Acinetobacter lwoffii” value [57] was “no”.
